This is an account of results in BindingDB's records for doi:10.1016/j.bioorg.2011.05.001 (Medical University of Lodz, 2011).

Assay [1] has as its target Carboxylic ester hydrolase (Equus caballus, UniProt Q9N1N9). Nature of the assay: Enzyme Assay. An excerpt:
(§1) Enzyme activity using acetylcholinesterase (AChE) and butyrylcholinesterase (BChE).

Another assay has as its target Acetylcholinesterase (Electrophorus electricus, UniProt O42275). The assay is described as follows: Enzyme Assay.
Text: as §1

A word on the IC50: it is the midpoint of a concentration-inhibition curve.

Counter-ions that a name gives are not always drawn.

Sequence of Acetylcholinesterase (O42275 whole entry): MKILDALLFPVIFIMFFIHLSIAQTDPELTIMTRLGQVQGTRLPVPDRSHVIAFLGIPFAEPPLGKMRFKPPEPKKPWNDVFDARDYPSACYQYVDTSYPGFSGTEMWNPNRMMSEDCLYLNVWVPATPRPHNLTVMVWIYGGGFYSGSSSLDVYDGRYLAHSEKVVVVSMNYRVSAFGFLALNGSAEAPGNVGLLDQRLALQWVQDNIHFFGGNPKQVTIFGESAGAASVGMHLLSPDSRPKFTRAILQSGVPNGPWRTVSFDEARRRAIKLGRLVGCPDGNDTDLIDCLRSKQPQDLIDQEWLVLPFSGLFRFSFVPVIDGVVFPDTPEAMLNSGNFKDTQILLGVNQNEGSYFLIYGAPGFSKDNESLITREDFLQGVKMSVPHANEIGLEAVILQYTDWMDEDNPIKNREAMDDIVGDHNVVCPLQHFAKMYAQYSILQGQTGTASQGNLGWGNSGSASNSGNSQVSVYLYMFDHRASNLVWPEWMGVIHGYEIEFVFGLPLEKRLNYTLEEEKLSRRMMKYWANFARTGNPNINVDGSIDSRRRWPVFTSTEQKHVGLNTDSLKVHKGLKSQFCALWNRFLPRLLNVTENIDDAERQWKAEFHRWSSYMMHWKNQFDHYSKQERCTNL
Sequence of Carboxylic ester hydrolase (Q9N1N9 whole entry): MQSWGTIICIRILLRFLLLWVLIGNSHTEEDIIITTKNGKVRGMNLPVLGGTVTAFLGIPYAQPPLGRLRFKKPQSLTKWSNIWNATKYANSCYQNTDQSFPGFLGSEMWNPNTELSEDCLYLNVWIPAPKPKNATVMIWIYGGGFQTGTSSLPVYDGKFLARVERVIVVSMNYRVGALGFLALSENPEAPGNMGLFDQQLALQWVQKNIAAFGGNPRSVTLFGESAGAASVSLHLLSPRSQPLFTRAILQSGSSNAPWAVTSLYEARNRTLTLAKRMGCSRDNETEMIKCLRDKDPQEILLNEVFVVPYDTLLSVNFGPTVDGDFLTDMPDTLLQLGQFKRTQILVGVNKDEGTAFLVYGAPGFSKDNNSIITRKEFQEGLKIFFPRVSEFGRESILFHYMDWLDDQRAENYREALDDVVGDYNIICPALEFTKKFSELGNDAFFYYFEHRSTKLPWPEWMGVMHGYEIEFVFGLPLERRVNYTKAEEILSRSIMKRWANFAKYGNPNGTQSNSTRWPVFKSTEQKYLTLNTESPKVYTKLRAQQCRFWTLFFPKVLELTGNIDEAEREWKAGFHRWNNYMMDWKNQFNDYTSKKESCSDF

Regarding `NNc1ccc(C(=O)NCCCCNc2c3c(nc4ccccc24)CCCC3)cn1` [Nicotinamide hydrochloride analog, 6a], the values for the IC50 (in assay [1]; against Acetylcholinesterase) were 0.00145 µM and 0.44 µM, respectively. For `NNc1ccc(C(=O)NCCCCCNc2c3c(nc4ccccc24)CCCC3)cn1` [Nicotinamide hydrochloride analog, 6b], on Acetylcholinesterase, half-maximal inhibition (IC50) required 0.308 µM. For `NNc1ccc(C(=O)NCCCCCCCNc2c3c(nc4ccccc24)CCCC3)cn1` [Nicotinamide hydrochloride analog, 6c], the IC50 is 0.00113 µM in assay [1] and 0.721 µM at Acetylcholinesterase.
